In PubChem BioAssay (NCI):
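Grown in 96-well plates, cells were treated for 48 hours with each compound at five concentrations. Insufficient inhibition: endpoint recorded as highest concentration tested. Here, GI50 denotes the concentration required for 50% inhibition of growth. At the TGI there is no net growth.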

Experiments:
Assay in all cases: NCI-60 cell line screen, 48 h
[1] = system: CCRF-CEM leukemia
[2] = system: EKVX NSCLC
[3] = system: HOP-92 NSCLC
[4] = system: NCI-H460 lung
[5] = system: SK-MEL-28 melanoma
[6] = system: SR leukemia
[7] = system: U251 CNS
[8] = system: UO-31 renal
[9] = system: HCT-116 colon
[10] = system: UACC-62 melanoma

| Compound | GI50 [1] | TGI [1] | GI50 [2] | TGI [2] | GI50 [3] | TGI [3] | GI50 [4] | TGI [4] | GI50 [5] | TGI [5] | GI50 [6] | TGI [6] | GI50 [7] | TGI [7] | GI50 [8] | TGI [8] | GI50 [9] | TGI [9] | GI50 [10] | TGI [10] |
| --- | --- | --- | --- | --- | --- | --- | --- | --- | --- | --- | --- | --- | --- | --- | --- | --- | --- | --- | --- | --- |
| COc1cnc2c(c1)C(=O)c1c-2n(CCCN2CCCC2)c(=O)c2cc(Cl)ccc12 | 0.025 µM | 9.05 µM | 2.18 µM | 11.3 µM | 2.2 µM | 12.1 µM | 0.0217 µM | 5.51 µM | 8.34 µM | 16.8 µM | 0.0499 µM | 7.9 µM | 0.0383 µM | 7.96 µM | 0.599 µM | 9.02 µM |  |  |  |  |
| CCN1C(=O)N(CC)C2C1NN=c1s/c(=C3\C(=O)N(C)c4ccccc43)c(=O)n12 (stereo not drawn) | 1.37 µM | > 100 µM | 3.25 µM | > 100 µM | 0.685 µM | > 100 µM | 1.29 µM | > 100 µM | 3.09 µM | > 100 µM | 0.382 µM | > 100 µM | 1.97 µM | > 68.9 µM | 1.28 µM | > 100 µM | 1.1 µM | > 43.6 µM | 0.431 µM | > 100 µM |
| CC(C)OC(=O)c1ccc2[nH]c(O)c(C(=Nc3ccc(N(C)C(=O)CN4CCN(C)CC4)cc3)c3ccccc3)c2c1 | 0.371 µM | 3.33 µM | 1.11 µM | 2.49 µM | 0.243 µM | 1.71 µM | 0.448 µM | 1.89 µM | 1.15 µM | 2.52 µM | 0.0443 µM | 0.721 µM | 0.622 µM | 2.4 µM | 0.278 µM | 1.31 µM | 0.149 µM | 1.28 µM | 1.32 µM | 3.01 µM |
| C=C(N=[N+]=[N-])c1cn(C2CC(O)C(CO)O2)c(=O)[nH]c1=O (stereo not drawn) |  | > 100 µM |  | > 100 µM |  | > 100 µM |  | > 100 µM |  | > 100 µM |  | > 100 µM |  | > 100 µM |  | > 100 µM |  | > 100 µM |  | > 100 µM |
| O=c1cccccc1NCCCCCCCCCNc1cccccc1=O |  | > 100 µM |  | 32.7 µM |  | 41.6 µM |  | 27.7 µM |  |  |  | 45.7 µM |  | 30 µM |  | 41.6 µM |  | 17.4 µM |  | 28.7 µM |
| O=C(Nc1cc(Cl)c(Cl)cc1Cl)C(=O)C(C(=O)c1ccc(Cl)c(Cl)c1)C1OC(=O)c2ccccc21 (stereo not drawn) |  | 49.5 µM |  | 58 µM |  | 31.4 µM |  | 10.8 µM |  |  |  | > 100 µM |  | 30.9 µM |  | 30.6 µM |  | 28.8 µM |  | 33.5 µM |
| CCCCCCCCCCCCC(=O)[O-].CCCCCCCCCCCCC(=O)[O-].CCCCCCCCCCCCC(=O)[O-].CCCCCCCCCCCCC(=O)[O-].[Mo+2].[Mo+2] | 2.29 µM | 10 µM | 19.7 µM | 35.8 µM | 3.56 µM | 9.35 µM | 17.1 µM | 60.1 µM | 21.4 µM | 65.7 µM | 5.83 µM | 29.8 µM | 10.7 µM | 22.6 µM | 14.7 µM | 41.9 µM | 8.98 µM | 27.3 µM | 11.7 µM | 26.9 µM |
| CCCCC[C@H]1C/C=C2/C(=O)C(Cl)=C[C@@H]2C/C=C\CCCC(=O)O[C@@H](CCCCC)C/C=C2/C(=O)C(Cl)=C[C@@H]2C/C=C\CCCC(=O)O1 | 0.145 µM | 1.76 µM | 0.543 µM | 1.76 µM | 0.314 µM | 0.687 µM | 0.405 µM | 1.02 µM | 0.407 µM | 1.01 µM | 0.159 µM | 1.35 µM | 0.291 µM | 0.652 µM | 0.269 µM | 0.508 µM | 0.186 µM | 0.523 µM | 0.297 µM | 0.62 µM |
| CC(=O)NC(CCCN(Cc1ccccc1)C(=O)N(CCCl)N=O)C(=O)NCc1ccccc1 (stereo not drawn) |  | > 100 µM |  | > 100 µM |  | > 91.8 µM |  | > 79.6 µM |  | > 100 µM |  | > 88.8 µM |  | > 100 µM |  | > 100 µM |  | > 100 µM |  | > 100 µM |
| O=C(O)c1c[nH]cc1C(=O)O |  | > 100 µM |  | > 100 µM |  | > 100 µM |  | > 100 µM |  |  |  | > 100 µM |  | > 100 µM |  | > 100 µM |  | > 100 µM |  | > 100 µM |
| C=C(C)[C@@H]1CC[C@@]2(C)[C@H]1[C@H]1CCC3[C@@]4(C)CC[C@H](O)C(C)(C)[C@@H]4CC[C@@]3(C)[C@]1(C)C[C@@H]2O (stereo partly drawn) |  | > 100 µM |  | > 100 µM |  | > 100 µM |  | > 100 µM |  | > 100 µM |  | > 100 µM |  | > 100 µM |  |  |  | > 100 µM |  |  |
| FC(F)(F)c1ccc2nc(Nc3ccc(Cl)c(Cl)c3)c(-c3ccccc3)nc2c1 |  | > 100 µM |  | > 100 µM |  | > 100 µM |  | > 100 µM |  | > 100 µM |  | > 100 µM |  | > 100 µM |  | > 100 µM |  | > 100 µM |  |  |
| COC1CC(n2cnc3c(N)ncnc32)OC1CO (stereo not drawn) |  | > 100 µM |  |  |  | > 100 µM |  | > 100 µM |  | > 100 µM |  | > 100 µM |  | > 100 µM |  | > 100 µM |  | > 100 µM |  | > 100 µM |
| Nc1nc(OCc2ccccc2)nc2[nH]ncc12 |  |  | 38.6 µM | > 100 µM | > 100 µM | > 100 µM | 24 µM | 88.8 µM | 17 µM | 35.2 µM | 5.59 µM | 30.5 µM | 18.9 µM | 42.2 µM | 20 µM | > 100 µM | 19.7 µM | 39 µM | 14.4 µM | 32.1 µM |
| C[C@H](CS(C)(=O)=O)Nc1ncc2cc(Oc3ccc(F)cc3F)c(=O)n(C)c2n1 | > 25 µM | > 25 µM |  |  | > 10.4 µM | > 25 µM | > 25 µM | > 25 µM | > 25 µM | > 25 µM | > 25 µM | > 25 µM | > 25 µM | > 25 µM | > 25 µM | > 25 µM | > 25 µM | > 25 µM | > 25 µM | > 25 µM |
| COc1ccccc1-c1c(C)nn2c(NCc3ccccn3)cc(C)nc12 | 6.89 µM | > 50 µM |  |  | 15.9 µM | > 50 µM | 27.1 µM | > 50 µM | > 36.9 µM | > 50 µM | 17 µM | > 50 µM | > 41.9 µM | > 50 µM | 10.2 µM | > 50 µM | 3.75 µM | > 50 µM | 16.9 µM | > 50 µM |
